Experimental data reported in paper PMC9516332 (Frontiers in Oncology, 2022).
Read-outs that look alike come from different tables or passages of the source.

How the values were obtained:
Assay in all cases: Kinase panel profiling at 1 µmol/L (MSA or IMAP), percentage inhibition
Assay type in all cases: biochemical
[1] = target: T1, panel of 255 wild-type kinases (Homo sapiens, UniProt O43781); conditions: read-out: %-inhibition at 1 µmol/L, DYRK3
T1 sequence (O43781 1-588): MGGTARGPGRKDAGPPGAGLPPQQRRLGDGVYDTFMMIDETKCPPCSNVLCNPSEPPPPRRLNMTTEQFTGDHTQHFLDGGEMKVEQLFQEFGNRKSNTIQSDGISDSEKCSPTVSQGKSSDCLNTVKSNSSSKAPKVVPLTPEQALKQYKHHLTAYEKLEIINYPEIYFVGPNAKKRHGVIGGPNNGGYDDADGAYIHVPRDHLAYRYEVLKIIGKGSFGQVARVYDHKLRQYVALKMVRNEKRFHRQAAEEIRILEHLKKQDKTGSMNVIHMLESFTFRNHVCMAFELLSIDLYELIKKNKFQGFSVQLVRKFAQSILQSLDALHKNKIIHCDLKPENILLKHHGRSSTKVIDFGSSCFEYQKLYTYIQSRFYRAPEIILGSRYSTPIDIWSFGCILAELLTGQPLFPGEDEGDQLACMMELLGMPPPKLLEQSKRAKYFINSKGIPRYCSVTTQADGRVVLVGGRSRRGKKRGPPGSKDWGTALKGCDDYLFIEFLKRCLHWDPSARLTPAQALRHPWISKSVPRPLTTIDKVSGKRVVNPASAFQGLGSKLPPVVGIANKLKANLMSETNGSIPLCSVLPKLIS

[2] = target: panel of 255 wild-type kinases (Homo sapiens, UniProt P07333); conditions: read-out: %-inhibition at 1 µmol/L, FMS
[3] = target: panel of 255 wild-type kinases (Homo sapiens, UniProt P17612); conditions: read-out: %-inhibition at 1 µmol/L, PKACα
[4] = target: panel of 255 wild-type kinases (Homo sapiens, UniProt P48729); conditions: read-out: %-inhibition at 1 µmol/L, CK1α
[5] = target: T2, panel of 255 wild-type kinases (Homo sapiens, UniProt P54760); conditions: read-out: %-inhibition at 1 µmol/L, EPHB4
T2 sequence (P54760 16-987): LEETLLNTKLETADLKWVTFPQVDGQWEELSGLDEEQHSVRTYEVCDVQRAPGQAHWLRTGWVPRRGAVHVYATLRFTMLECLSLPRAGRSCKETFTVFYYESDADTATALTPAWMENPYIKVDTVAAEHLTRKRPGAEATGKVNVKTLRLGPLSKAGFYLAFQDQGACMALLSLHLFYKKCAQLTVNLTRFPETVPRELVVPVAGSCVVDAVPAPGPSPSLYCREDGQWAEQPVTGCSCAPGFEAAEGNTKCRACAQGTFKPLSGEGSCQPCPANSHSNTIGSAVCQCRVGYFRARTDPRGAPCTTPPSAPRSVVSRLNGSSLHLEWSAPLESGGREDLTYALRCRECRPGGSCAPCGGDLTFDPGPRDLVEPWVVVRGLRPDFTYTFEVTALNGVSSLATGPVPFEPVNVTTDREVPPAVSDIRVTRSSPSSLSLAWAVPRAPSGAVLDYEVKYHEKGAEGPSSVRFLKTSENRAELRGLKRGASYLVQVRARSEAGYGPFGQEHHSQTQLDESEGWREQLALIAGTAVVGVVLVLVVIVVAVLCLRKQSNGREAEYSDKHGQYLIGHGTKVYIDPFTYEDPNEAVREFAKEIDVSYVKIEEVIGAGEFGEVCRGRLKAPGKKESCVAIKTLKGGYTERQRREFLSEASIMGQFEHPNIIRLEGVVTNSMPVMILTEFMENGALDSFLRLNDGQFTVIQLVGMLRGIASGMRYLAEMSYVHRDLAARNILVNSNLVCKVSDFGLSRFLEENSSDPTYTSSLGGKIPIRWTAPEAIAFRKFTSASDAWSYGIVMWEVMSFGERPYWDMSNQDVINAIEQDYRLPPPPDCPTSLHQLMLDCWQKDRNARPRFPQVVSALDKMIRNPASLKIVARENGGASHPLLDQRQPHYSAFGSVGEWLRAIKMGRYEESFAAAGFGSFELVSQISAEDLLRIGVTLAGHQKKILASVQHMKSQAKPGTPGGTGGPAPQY

[6] = target: panel of 255 wild-type kinases (Homo sapiens, UniProt Q16644); conditions: read-out: %-inhibition, MAPKAPK3
[7] = target: panel of 255 wild-type kinases (Homo sapiens, UniProt Q9HBH9); conditions: read-out: %-inhibition, MNK2
[8] = target: panel of 255 wild-type kinases (Homo sapiens, UniProt Q9NYA1); conditions: read-out: %-inhibition at 1 µmol/L, SPHK1
[9] = kinase DYRK3, 1 µmol/L single concentration
[10] = kinase FMS, 1 µmol/L single concentration
[11] = kinase PKACα, 1 µmol/L single concentration
[12] = kinase CK1α, 1 µmol/L single concentration
[13] = kinase EPHB4, 1 µmol/L single concentration
[14] = MAPKAPK3, 1 µmol/L single concentration
[15] = MNK2, 1 µmol/L single concentration
[16] = kinase SPHK1, 1 µmol/L single concentration

| SMILES | inhibition at 1 µM [1, 9] | inhibition at 1 µM [2, 10] | inhibition at 1 µM [3, 11] | inhibition at 1 µM [4, 12] | inhibition at 1 µM [5, 13] | inhibition at 1 µM [6, 14] | inhibition at 1 µM [7, 15] | inhibition at 1 µM [8, 16] | inhibition at 1 µM [1] | inhibition at 1 µM [2] | inhibition at 1 µM [3] | inhibition at 1 µM [4] | inhibition at 1 µM [5] | inhibition at 1 µM [6] | inhibition at 1 µM [7] | inhibition at 1 µM [8] |
| --- | --- | --- | --- | --- | --- | --- | --- | --- | --- | --- | --- | --- | --- | --- | --- | --- |
| COC(=O)N[C@@H](C)CNc1nccc(-c2cn(C(C)C)nc2-c2cc(Cl)cc(NS(C)(=O)=O)c2F)n1 [encorafenib] | -1.06% | 8% | -10% | 36% | -0.672% | -15% | -3.42% | -5.65% | – | – | – | – | – | – | – | – |
| C[C@H](Nc1ncnc2nc[nH]c12)c1cc2cccc(Cl)c2c(=O)n1-c1ccccc1 [duvelisib] | -2% | 2.22% | -7.56% | -2% | 3.24% | -13% | 7% | -3.25% | – | – | – | – | – | – | – | – |
| CCN1CCN(c2ccc(Nc3cc(N(C)C(=O)Nc4c(Cl)c(OC)cc(OC)c4Cl)ncn3)cc2)CC1 [infigratinib] | -10% | 96% | -28% | -7.38% | -0.369% | -17% | -1.83% | -14% | – | – | – | – | – | – | – | – |
| CNC(=O)c1ccc(-c2cnc3ncc(Cc4ccc5ncccc5c4)n3n2)cc1F [capmatinib] | – | – | – | – | – | – | – | – | 4.5% | 13% | -28% | -5.42% | -1.2% | -11% | -4% | -5.27% |
| FC(F)(F)c1ccc(CNc2ccc(Cc3c[nH]c4ncc(Cl)cc34)cn2)cn1 [pexidartinib] | 8% | 95% | -7% | 4.47% | -2% | -15% | 48% | -5% | – | – | – | – | – | – | – | – |
| O=C(Nc1cnn2ccc(N3CCC[C@@H]3c3cc(F)ccc3F)nc12)N1CC[C@H](O)C1 [larotrectinib] | -6% | -4.31% | -20% | 1.46% | -2.17% | -16% | -8.51% | -16% | – | – | – | – | – | – | – | – |
| CCc1nc(C(N)=O)c(Nc2ccc(N3CCC(N4CCN(C)CC4)CC3)c(OC)c2)nc1NC1CCOCC1 [gilteritinib] | 27% | 104% | – | 13% | 74% | -16% | 89% | -6% | – | – | 7% | – | – | – | – | – |
| CCn1c(=O)c(-c2cc(NC(=O)Nc3ccccc3)c(F)cc2Br)cc2cnc(NC)cc21 [ripretinib] | -3.77% | 71% | -16% | 11% | 90% | -16% | 5% | -19% | – | – | – | – | – | – | – | – |
| CN1CCN(c2ccc(C(=O)Nc3n[nH]c4ccc(Cc5cc(F)cc(F)c5)cc34)c(NC3CCOCC3)c2)CC1 [entrectinib] | -3% | 86% | -7% | – | 73% | -10% | 0.904% | -4% | – | – | – | – | – | – | – | – |
| Cn1cnc2c(F)c(Nc3ccc(Br)cc3F)c(C(=O)NOCCO)cc21 [binimetinib] | -3.3% | 7% | -12% | 9% | -0.0401% | -11% | -13% | -26% | – | – | – | – | – | – | – | – |
| COc1ccc(CN2C3CC2CN(c2ccc(-c4cc(OCC(C)(C)O)cn5ncc(C#N)c45)cn2)C3)cn1 [selpercatinib] | 19% | 79% | -5% | 25% | 73% | -12% | 37% | -13% | – | – | – | – | – | – | – | – |
| Cc1nc(NC(=O)N2CCC[C@H]2C(N)=O)sc1-c1ccnc(C(C)(C)C(F)(F)F)c1 [alpelisib] | 10% | 14% | -13% | -14% | 3.19% | -13% | 8% | -5.44% | – | – | – | – | – | – | – | – |
| Cc1cc(Nc2ncnc3ccc(NC4=NC(C)(C)CO4)cc23)ccc1Oc1ccn2ncnc2c1 [tucatinib] | 1.07% | 12% | -20% | 0.588% | -0.489% | -3% | 8% | -6.37% | – | – | – | – | – | – | – | – |
| Cn1cnc2c(F)c(Nc3ccc(Br)cc3Cl)c(C(=O)NOCCO)cc21 [selumetinib] | -4.7% | 8.51% | -28% | -3.42% | 0.674% | -14% | -0.47% | -8% | – | – | – | – | – | – | – | – |
| COc1cc2ncnc(Nc3ccc(F)c(Cl)c3)c2cc1NC(=O)/C=C/CN1CCCCC1 [dacomitinib] | 18% | 8.55% | -11% | 8% | 62% | -25% | 76% | -15% | – | – | – | – | – | – | – | – |
| C[C@H]1Oc2cc(cnc2N)-c2c(nn(C)c2C#N)CN(C)C(=O)c2ccc(F)cc21 [lorlatinib] | -3.41% | 32% | -8% | -12% | 43% | -10% | 13% | -7% | – | – | – | – | – | – | – | – |
| CCN1C(=O)N(c2c(F)c(OC)cc(OC)c2F)Cc2cnc3[nH]c(CN4CCOCC4)cc3c21 [pemigatinib] | -2.68% | 93% | -9% | 2.22% | -3% | -12% | -7.4% | -13% | – | – | – | – | – | – | – | – |
| Cn1cc(-c2cc3c(N4CCN(c5ncc([C@@](C)(N)c6ccc(F)cc6)cn5)CC4)ncnn3c2)cn1 [avapritinib] | 49% | – | -20% | 5% | 34% | -4% | 29% | -1.72% | – | – | – | – | – | – | – | – |
